In patent publication US9493460B2, “Diimide compounds” (UCL BUSINESS PLC, priority 2013, dated 2016):
“Also recorded” adds a separate entry of the source. Like-named read-outs stand apart in the source and are kept apart here.

How the values were obtained:
[1] = tested on: panel of cancer cell lines; test: SRB assay, panel of cancer cell lines and normal fibroblast line; type: cell-based, human; conditions: 96 h exposure; for IC50: Homo sapiens, Fibroblast, read-out: IC50 values across the cell line panel
Description: (§1) Human cancer cell lines, MCF7 (breast), A549 (lung), Mia-PaCa2, PANC1 and HPAC (pancreatic), RCC4 and 786-0 renal, and the somatic human cell line WI-38 (lung fibroblast) were purchased from ATCC. Cell lines were maintained in appropriate medium supplemented with 10% foetal bovine serum (Invitrogen, UK), 2 mM L-glutamine (Invitrogen, Netherlands), and other components as specified by the suppliers. Cell lines were maintained at 37° C., 5% CO2 and routinely passaged. Drugs were dissolved in DMSO and filtered through 0.22 μm pore-size filter units before addition to cell line appropriate media. Cellular growth inhibition was measured using the sulforhodamine B (SRB) assay in 96 well plates as described previously.^1,2 Fifty percent inhibitory concentrations (IC50) were determined by taking the mean absorbance at 540 nm for each drug concentration expressed as a percentage of the absorbance of untreated control wells.
(§2) The anti-proliferative activity of the group of nine ND derivatives was assessed using the SRB assay following 96 h exposure to 2-fold serial dilutions of each compound (Table 2) in a panel of cancer cell lines together with a normal fibroblast line. […] In contrast the morpholine compounds all show sub-μM anti-proliferative activity in at least some of the cancer cell lines used and the two compounds 3d, 3h with n=3 —(CH2)n— linkers to the morpholine groups, show particularly potent activity in the Mia-PaCa2 and PANC1 pancreatic carcinoma and A549 lung adenocarcinoma cell lines (IC50 values of 10-20 nM).

[2] = tested on: human telomeric G-quadruplex DNA (F21T); test: FRET melting assay, human telomeric quadruplex; type: binding; conditions: for telomeric quadruplex stabilization (in words): FRET melting; for change in melting temperature F21T 1 uM: 1 uM ligand; for change in melting temperature F21T 2 uM: 2 uM ligand
Text: (§3) The ability of the naphthalene diimide compounds to stabilize DNA sequences was investigated using a fluorescence resonance energy transfer (FRET) assay modified to be used as a high-throughput screen in a 96-well format. Several quadruplex sequences were studied (the human telomeric G-quadruplex DNA sequence 5′-FAM-d(GGG[TTAGGG]3)-TAMRA-3′ and the duplex sequence 5′-FAM-dTATAGCTATA-HEG-TATAGCTATA-TAMRA-3′ (HEG linker: [(—CH2—CH2—O—)6])), as well as two overlapping sequences from the HSP90 promoter region (HSP90a and HSP90b):
(§4) The labelled oligonucleotides have attached to them the donor fluorophore FAM: 6-carboxyfluorescein and the acceptor fluorophore TAMRA: 6-carboxytetramethylrhodamine. The FRET probe sequences were diluted from stock to the correct concentration (400 nM) in a 60 mM potassium cacodylate buffer (pH 7.4) and then annealed by heating to 85° C. for 10 min, followed by cooling to room temperature in the heating block. The compound was stored as a 10 mM stock solution in DMSO; final solutions (at 2×concentration) were prepared using 10 mM HCl in the initial 1:10 dilution, after which 60 mM potassium cacodylate buffer (pH 7.4) was used in all subsequent steps. The maximum HCl concentration in the reaction volume (at a ligand concentration of 20 μM) is thus 200 μM, well within the range of the buffer used. Relevant controls were also performed to check for interference with the assay. 96-Well plates (MJ Research, Waltham, Mass.) were prepared by aliquoting 50 μl of the annealed DNA into each well, followed by 50 μl of the compound solutions. Measurements were made on a DNA Engine Opticon (MJ Research) with excitation at 450-495 nm and detection at 515-545 nm. Fluorescence readings were taken at intervals of 0.5° C. in the range 30-100° C., with a constant temperature being maintained for 30 s prior to each reading to ensure a stable value. Final analysis of the data was carried out using a script written in the program Origin 7.0 (OriginLab Corp., Northampton, Mass.). The advanced curve-fitting function in Origin 7.0 was used for calculation of ΔTm values. All determinations were performed in triplicate or better. Esds in ΔTm are ±0.1° C.
The ability of compounds 3a-h to stabilize a human telomeric quadruplex was assessed by a high-throughput FRET (Fluorescence Resonance Energy Transfer) melting technique. […] None of the furan tetrahydrofuran, pyranose or acyclic ether compounds has any effect on quadruplex or duplex stability.
(§5) The T-loop sequence represents duplex DNA.

[3] = tested on: duplex DNA (T-loop); test: FRET melting assay, duplex DNA; type: binding; conditions: for change in melting temperature Tloop 1 uM: 1 uM ligand; for change in melting temperature Tloop 2 uM: 2 uM ligand
Text: as §3, §4, §5

[4] = tested on: 786-O (renal) cells; test: SRB growth inhibition assay, 96 hr exposure, 786-O; type: cell-based, human; conditions: SRB assay, 96 hr exposure
Description: as §1, §2
(§6) Next a series of structural isomers were tested.

[5] = tested on: HSP90b promoter quadruplex sequence; test: FRET melting assay, Hsp90B quadruplex; type: binding; conditions: for change in melting temperature Hsp90B 1 uM: 1 uM ligand; for change in melting temperature Hsp90B 2 uM: 2 uM ligand
Text: as §3
as §4, with “±0.1° C. […]” for “±0.1° C.”

[6] = tested on: WI38 normal human fibroblast cells; test: SRB growth inhibition assay, 96 hr exposure, WI38; type: cell-based
Description: as §1
as §2, with “nM). […]” for “nM).”

[7] = tested on: Panc1 (pancreatic) cells; test: SRB growth inhibition assay, 96 hr exposure, Panc1; type: cell-based, human
Description: as §1, §2, §6

[8] = tested on: RCC4 (renal) cells; test: SRB growth inhibition assay, 96 hr exposure, RCC4; type: cell-based, human
Description: as §1, §2, §6

[9] = tested on: HSP90a promoter quadruplex sequence; test: FRET melting assay, Hsp90A quadruplex; type: binding; conditions: for change in melting temperature Hsp90A 1 uM: 1 uM ligand; for change in melting temperature Hsp90A 2 uM: 2 uM ligand
Text: as §3
as §4, with “±0.1° C. […]” for “±0.1° C.”

[10] = tested on: MCF-7 (breast) cells; test: SRB growth inhibition assay, 96 hr exposure, MCF-7; type: cell-based, human
Description: as §1, §2, §6

[11] = tested on: A549 (lung) cells; test: SRB growth inhibition assay, 96 hr exposure, A549; type: cell-based, human
Description: as §1, §2, §6

[12] = tested on: MiaPaCa2 (pancreatic) cells; test: SRB growth inhibition assay, MiaPaCa2; type: cell-based, human; conditions: SRB assay, 96 hr exposure
Description: as §1, §2
Dose-response curves were used to guide the choice of compound concentration and time-points for the array experiments (FIG. 2a). […] To explore this response continuum the transcriptional signature of cells exposed for 24 h to 20 nM, 40 nM, 80 nM concentrations of 3d, or solvent alone as control, was analysed as described in Materials and Methods.
as §6

SMILES | change in melting temperature Tloop 1 uM [3] | change in melting temperature Tloop 2 uM [3] | change in melting temperature Hsp90B 1 uM [5] | change in melting temperature Hsp90B 2 uM [5] | change in melting temperature F21T 1 uM [2] | change in melting temperature F21T 2 uM [2] | change in melting temperature Hsp90A 1 uM [9] | change in melting temperature Hsp90A 2 uM [9] | IC50 [4] | IC50 [6] | IC50 ([7]; 96 hr exposure) | IC50 [8] | IC50 [10] | IC50 ([11]; 96 hr exposure) | IC50 [12] | other results
CN1CCN(CCCNc2cc3c4c(c(NCCCN5CCN(C)CC5)cc5c4c2C(=O)N(CC2CCCO2)C5=O)C(=O)N(CC2CCCO2)C3=O)CC1 (racemic) [Compound 3a, 4,9-bis((3-(4-methylpiperazin-1-yl)propyl)amino)-2,7-bis((tetrahydrofuran-2-yl)methyl)benzo[lmn][3,8]phenanthroline-1,3,6,8(2H,7H)-tetraone] | – | – | – | – | – | – | – | – | – | – | – | – | – | – | – | anti-proliferative activity (in words) [1]: devoid of significant anti-proliferative activity in all except the Mia-PaCa2 and A549 lines
CN1CCN(CCCNc2cc3c4c(c(NCCCN5CCN(C)CC5)cc5c4c2C(=O)N(Cc2ccco2)C5=O)C(=O)N(Cc2ccco2)C3=O)CC1 [Compound 3b, 2,7-bis(furan-2-ylmethyl)-4,9-bis((3-(4-methylpiperazin-1-yl)propyl)amino)benzo[lmn][3,8]phenanthroline-1,3,6,8(2H,7H)-tetraone] | – | – | – | – | – | – | – | – | – | – | – | – | – | – | – | IC50 [1]: 1000 to 8000 nM; telomeric quadruplex stabilization (in words) [2]: low level of quadruplex binding
COCCCN1C(=O)c2cc(NCCCN3CCN(C)CC3)c3c4c(cc(NCCCN5CCN(C)CC5)c(c24)C1=O)C(=O)N(CCCOC)C3=O [Compound 3e, 2,7-bis(3-methoxypropyl)-4,9-bis((3-(4-methylpiperazin-1-yl)propyl)amino)benzo[lmn][3,8]phenanthroline-1,3,6,8(2H,7H)-tetraone] | – | – | – | – | – | – | – | – | – | – | – | – | – | – | – | IC50 [1]: 1000 to 8000 nM; telomeric quadruplex stabilization (in words) [2]: very slight effect; also recorded: low level of quadruplex binding
CN1CCN(CCCNc2cc3c4c(c(NCCCN5CCN(C)CC5)cc5c4c2C(=O)N(CCCN2CCOCC2)C5=O)C(=O)N(CCCN2CCOCC2)C3=O)CC1 [MM41] | 5 | 9 | 29 | 33 | 27 | 32 | 33 | 36 | – | – | – | – | – | – | – | IC50 ([4]; Homo sapiens, 786-0): 320 ± 10 nM; IC50 ([6]; Homo sapiens, WI-38): 230 ± 10 nM; IC50 ([7]; Homo sapiens, PANC-1, 96 hr exposure): 3 ± 0.5 nM; IC50 ([8]; Homo sapiens, RCC4): 560 ± 50 nM; IC50 ([10]; Homo sapiens, MCF7): 70 ± 7 nM; IC50 ([11]; Homo sapiens, A549, 96 hr exposure): 19 ± 5 nM; IC50 ([12]; Homo sapiens, MIA PaCa-2): 10 ± 10 nM
COCCCNc1cc2c3c(c(NCCCOC)cc4c3c1C(=O)N(CCCN1CCN(C)CC1)C4=O)C(=O)N(CCCN1CCN(C)CC1)C2=O [SKM022] | 0 | 0 | 22 | 26 | <2 | 16 | 22 | 24 | 16100 ± 630 nM | > 25000 nM | 2500 ± 340 nM | 7600 ± 10 nM | 17500 ± 980 nM | 5750 ± 510 nM | 7050 ± 830 nM | –
CN1CCN(CCCN2C(=O)c3cc(NCCCN4CCOCC4)c4c5c(cc(NCCCN6CCOCC6)c(c35)C2=O)C(=O)N(CCCN2CCN(C)CC2)C4=O)CC1 [SKM029] | 5 | 9 | 30 | 34 | 29 | 34 | 34 | 36 | 440 ± 70 nM | 300 ± 23 nM | 2 ± 1 nM | 610 ± 70 nM | 14 ± 1 nM | 7 ± 1 nM | 50 ± 2 nM | –
CN1CCN(CCN2C(=O)c3cc(NCCCN4CCOCC4)c4c5c(cc(NCCCN6CCOCC6)c(c35)C2=O)C(=O)N(CCN2CCN(C)CC2)C4=O)CC1 [SKM036] | 2 | 8 | 28 | 32 | 26 | 31 | 33 | 36 | 160 ± 21 nM | 180 ± 2 nM | 5 ± 1 nM | 300 ± 16 nM | 21 ± 1 nM | 20 ± 1 nM | 5 ± 1 nM | –
CN1CCN(CCCN2C(=O)c3cc(NCC4CCOCC4)c4c5c(cc(NCC6CCOCC6)c(c35)C2=O)C(=O)N(CCCN2CCN(C)CC2)C4=O)CC1 [SKM052] | 0 | 0 | 3 | 23 | <2 | 22 | 2 | 27 | 290 ± 2 nM | 2800 ± 230 nM | 1100 ± 130 nM | 2200 ± 15 nM | 510 ± 17 nM | 460 ± 10 nM | 137 ± 31 nM | –
